From the NIST ThermoML archive (doi:10.1016/j.fluid.2009.08.016)
± gives the expanded uncertainty stated by the source.

Legend:
[1] = Crystal; DTA
[2] = Molar enthalpy of transition or fusion; conditions: Crystal; DSC

- Normal melting temperature [1]: 148.6 ± 0.5 °C
- Molar enthalpy of transition or fusion [2]: 6.81 ± 0.191 kcal/mol
SMILES: CC(C)CCC[C@@H](C)[C@H]1CC[C@H]2[C@@H]3CC=C4C[C@@H](O)CC[C@]4(C)[C@H]3CC[C@]12C [.DELTA.5-cholesten-3β-ol]
